Experimental data reported in patent publication US10435388B2, “Selective inhibitors of clinically important mutants of the EGFR tyrosine kinase” (CS PHARMATECH LIMITED, priority 2016, dated 2019).
pIC50: −log10 of the molar value. Like-named read-outs stand apart in the source and are kept apart here.

How the values were obtained:
PC9 cells (SM) = assay: PC-9 growth inhibition assay (cell proliferation), Method B; type: cell-based, human; details: cellular proliferation, several runs
H1975 cells (DM) = assay: H1975 inhibition assay (cell proliferation), Method B; type: cell-based; details: cellular proliferation, several runs
A431 cells (WT) = assay: A431 inhibition assay (cell proliferation), Method B; type: cell-based, human; details: cellular proliferation, several runs
Procedure: Cell Proliferation Assays—Method B
A431 Inhibition Assay, (Cell Proliferation).
The rest procedure was conducted in the same manner as described above for H1975 cells.

[1] = system: p-EGFR in PC9 cells (Exon 19 deletion EGFR); assay: Exon19 deletion EGFR (activating single mutant) PC-9 cellular autophosphorylation assay; type: cell-based, human; details: 2 h treatment, ELISA
Procedure: (§1) Cellular EGFR Autophosphorylation Assays.
The human lung cell line PC9 (Exon 19 deletion EGFR) is obtained from the American type Culture Collection. […] Cells are grown in a humidified incubator at 37° C. with 5% CO2, Assays to measure cellular phosphorylation of endogenous p-EGFR in cell Iysates are carried out according to the protocol described in the R&D Systems DuoSet IC Human Phospho-EGF R ELISA (R&D Systems catalogue number #DYCI095). 40 μL of cells are seeded (10000 cells/well) in growth medium in Corning black, clear-bottomed 384-well plates and incubated at 37° C., with 5%0/CO2 overnight. […] Plates are incubated for a further 2 h, then following aspiration of medium, 40 μL×lysis buffer is added to each well. Greiner black high bind 384 well plates are coated with capture antibody and then blocked with 3% BSA. Following removal of block, 15 μL of lysate are transferred to the Greiner black high bind 384 well plates and incubated for 2 hours. Following aspiration and washing of the plates with PBS, 20 μL of detection antibody are added and incubated for 2 hours. […] The data obtained with each compound are exported into a suitable software package (such as Origin) to perform curve fitting analysis.

[2] = system: p-EGFR in A431 cells (wild type EGFR, EGF stimulated); assay: Wild type EGFR A431 autophosphorylation inhibition assay (ELISA); type: cell-based, human; details: 2 h treatment, EGF stimulation 10 min
Procedure: as §1
Wild Type EGFR A431 Autophosphorylation Inhibition Assay (ELISA).
After 2 hour treatment with test compounds, add 4.5 μL of EGF (1 μg/mL) into each well and stimulate for 10 min. The rest of the procedure was processed in the same manner as described above for H1975 cells.

IGF-1R = target: T1, IGF-1R (Homo sapiens, UniProt P08069); assay: IGF-1R inhibition assay (Caliper EZ Reader); type: biochemical; details: enzyme assay
T1 construct: purchased CARNA BIOSCIENCE 08-141
Procedure: (§2) Test compound was dissolved in DMSO at 30 mM. […] 20 nL of these compounds DMSO dilutes were dispensed into a new 384-well assay plate by Echo 550. […] 15 uL of kinase assay buffer containing IGF-1R protein and substrate was transferred to assay plate and incubate at RT for 30 minutes. Kinase assay buffer supplemented with substrate peptides was employed as low control to monitor the background. 40 μM ATP was prepared in kinase assay buffer containing and 5 μL of ATP solution was added to each well to start the reaction. The assay plate was incubated at 25° C. for 180 minutes and the reaction was stopped by adding 40 μL of 0.5 M EDTA.
Phosphorylated fluorescent-tagged peptides were differentiated from non-phosphorylated peptides by separating using Caliper EZ Reader II and the detection was directly converted to conversion ratio.

INSR = target: T2, INSR (Homo sapiens, UniProt P06213); assay: INSR inhibition assay (Caliper EZ Reader); type: biochemical; details: enzyme assay
T2 construct: purchased CARNA BIOSCIENCE 08-142
Procedure: as §2, with “INSR” for “IGF-1R”, “LM” for “μM”
The result is analyzed in the same manner of […].

[3] = system: p-EGFR in H1975 cells (L858R/T790M double mutant EGFR); details: for IC50: Homo sapiens, NCI-H1975, 2 h, read-out: H1975 IC50 (nM), cellular EGFR autophosphorylation, 2 h treatment, ELISA
Procedure: H1975 cells were cryopreserved in liquid nitrogen. […] Remove the vial from liquid nitrogen and thaw rapidly by placing at 37° C. in a water bath with gentle agitation for 1-2 minutes and then decontaminated by wiping with 70% ethanol before opening in a Class II biological safety cabinet. Transfer the vial contents drop-wise into 10 mL of cell culture medium in a sterile 15 mL conical tube. Then centrifuged the tube at 200× g for 5 minutes and aspirate the supernatant. Re-suspend the cell pellet with 1 mL of fresh cell culture medium and transfer it in to the T75 flask containing cell culture medium.
To passage H1975 cells, firstly, the adherent cells were rinsed with Trypsin/EDTA. Then add Trypsin/EDTA (3 mL for a T75 flask) into the flask and swirl to ensure the cells coated with trypsin evenly. Then incubate the flasks at 37° C. until the cells detach. Add equal volume of cell culture medium to stop the reaction. Collect the detached cells and centrifuged at 200× g for 5 minutes followed by re-suspended in fresh culture medium. Then, the cells were transferred into a new T75 flask containing cell culture medium. Cells were sub-cultured three times per week at a ratio of 1:4 in culture medium.
Harvest cells from flask into cell culture medium and the cell numbers counted using Automated Cell Counter (Thermo Fisher Scientific, Countess™). Dilute the cells into 250,000 cells/mL with culture medium and add 40 μL of cell suspension into each well of 384-well cell culture plate as designated. The final concentration was 10,000 cells/well. The plates were covered with lid and placed in 37° C. 5% CO2 incubator overnight for cell attachment.
On the second day, test compounds were dissolved in DMSO at 10 mM. […] The same volume of DMSO was adopted as high control.
Place the plate back to 37° C. 5% CO2 incubator for 2 hours. Replace the medium of each well with ice-cold HBSS. Then remove the HBSS, add 30 μL cell lysis buffer into each well and shake the plates for 30 mins on a plate shaker. Centrifuge for 5 min at 1,000 rpm to remove bubbles and transfer 25 uL of the lysate supernatant for p-EGFR assay by using a commercial ELISA kit (R&D, DYC1095B-5).
For estimation of IC50, the absorption readout are transformed to % relative activity by applying the following equation
[formula] The IC50 was then calculated by fitting in XLFit (IDBS, Guildford, Surrey) to a four parameters logistic curve.

[4] = Homo sapiens, A-431, cellular EGFR autophosphorylation

T1 sequence (P08069 959-1367 limits assumed): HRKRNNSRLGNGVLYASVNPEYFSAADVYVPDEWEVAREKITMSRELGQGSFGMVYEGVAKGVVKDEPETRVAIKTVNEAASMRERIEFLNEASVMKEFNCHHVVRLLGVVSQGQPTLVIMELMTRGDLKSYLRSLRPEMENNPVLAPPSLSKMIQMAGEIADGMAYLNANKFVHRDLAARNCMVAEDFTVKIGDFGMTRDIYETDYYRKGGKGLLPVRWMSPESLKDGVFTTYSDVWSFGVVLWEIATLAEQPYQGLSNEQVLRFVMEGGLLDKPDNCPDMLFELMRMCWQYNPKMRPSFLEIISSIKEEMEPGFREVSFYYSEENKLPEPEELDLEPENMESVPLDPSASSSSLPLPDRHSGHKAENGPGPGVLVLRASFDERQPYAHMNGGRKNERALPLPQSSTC
T2 sequence (P06213 989-1382 limits assumed): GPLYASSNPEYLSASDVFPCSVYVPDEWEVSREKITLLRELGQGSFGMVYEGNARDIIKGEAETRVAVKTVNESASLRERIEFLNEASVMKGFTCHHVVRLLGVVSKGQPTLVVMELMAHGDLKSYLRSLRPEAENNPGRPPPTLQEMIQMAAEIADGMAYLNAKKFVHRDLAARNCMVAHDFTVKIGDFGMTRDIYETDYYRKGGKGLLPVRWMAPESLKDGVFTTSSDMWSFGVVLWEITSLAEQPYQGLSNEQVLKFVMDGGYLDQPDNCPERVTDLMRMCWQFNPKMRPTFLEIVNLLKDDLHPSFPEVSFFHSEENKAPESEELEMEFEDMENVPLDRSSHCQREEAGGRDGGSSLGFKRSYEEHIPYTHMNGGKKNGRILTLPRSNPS

Row | Structure (SMILES) | pIC50 (PC9 cells (SM); Homo sapiens, PC-9, 72 h) | pIC50 (H1975 cells (DM); Homo sapiens, NCI-H1975, 72 h) | pIC50 (A431 cells (WT); Homo sapiens, A-431, 72 h) | pIC50 ([1]; Homo sapiens, PC-9, 2 h) | pIC50 [2, 4] | IC50 (IGF-1R) [nM] | IC50 (INSR) [nM] | IC50 [3] [nM] | pIC50 (PC9 cells (SM); 72 h) | pIC50 (H1975 cells (DM); 72 h) | pIC50 (A431 cells (WT); 72 h) | pIC50 [1] | pIC50 ([2]; cellular EGFR autophosphorylation) | pIC50 ([3]; read-out: H1975 IC50, cellular EGFR autophosphorylation, 2 h treatment, ELISA)
1 | C=CC(=O)Nc1cc(Nc2nccc(-c3cnc(OC)c4c3ccn4C)n2)c(OC)cc1N(C)CCN(C)C [Example 57, N-(5-(4-(7-Methoxy-1N-methyl-1H-pyrrolo[2,3-c]pyridin-4-yl)pyrimidin-2-ylamino)-2-(N-(2-(dimethylamino)ethyl)-N-methylamino)-4-methoxyphenyl) acrylamide] | 8.44 | 8.29 | 6.57 | 7.85 | 6.87 | 207 | 290 | 8.5 | – | – | – | – | – | –
2 | C=CC(=O)Nc1cc(Nc2nccc(-n3nc(NC)c4ncccc43)n2)c(OC)cc1N(C)CCN(C)C [Example 56, N-(5-(4-(3-(Methylamino)-1H-pyrazolo[4,3-b]pyridin-1-yl)pyrimidin-2-ylamino)-2-(N-(2-(dimethylamino)ethyl)-N-methylamino)-4-methoxyphenyl) acrylamide] | 8.78 | 8.56 | 6.29 | 8.39 | 7.10 | 637 | 433 | 6.28 | – | – | – | – | – | –
3 | C=CC(=O)Nc1cc(Nc2nccc(-c3cnc(NC)c(C(C)=O)c3)n2)c(OC)cc1N(C)CCN(C)C [Example 27, N-(5-((4-(5-Acetyl-6-(methylamino)pyridin-3-yl)pyrimidin-2-yl)amino)-2-((2-(dimethylamino)ethyl)(methyl)amino)-4-methoxyphenyl) acrylamide] | 7.87 | 8.00 | 5.79 | 7.75 | 6.70 | 4820 | 13200 | 6.78 | – | – | – | – | – | –
4 | C=CC(=O)Nc1cc(Nc2nccc(-n3nc(NCC)c4ccccc43)n2)c(OC)cc1N(C)CCN(C)C [Example 41] | 8.12 | 8.03 | 6.53 | 8.20 | 6.86 | 1420 | 1270 | 11.9 | – | – | – | – | – | –
5 | C=CC(=O)Nc1cc(Nc2nccc(-n3nc(N(C)C)c4ncccc43)n2)c(OC)cc1N(C)CCN(C)C [Example 55, N-(5-(4-(3-(Dimethylamino)-1H-pyrazolo[4,3-b]pyridin-1-yl)pyrimidin-2-ylamino)-2-(N-(2-(dimethylamino)ethyl)-N-methylamino)-4-methoxyphenyl) acrylamide] | 8.04 | 8.41 | 5.55 | 7.81 | 6.97 | 1300 | 1200 | 4.07 | – | – | – | – | – | –
6 | C=CC(=O)Nc1cc(Nc2nccc(-n3nc(C(C)(C)O)c4ccccc43)n2)c(OC)cc1N(C)CCN(C)C [Example 45] | 8.36 | 8.58 | 6.34 | 7.97 | 7.12 | 1270 | 1020 | 3.83 | – | – | – | – | – | –
7 | C=CC(=O)Nc1cc(Nc2nccc(-c3c[nH]c4c(OC)nccc34)n2)c(OC)cc1N(C)CCN(C)C [Example 23, N-(2-((2-(Dimethylamino)ethyl)(methyl)amino)-4-methoxy-5-((4-(7-methoxy-1H-pyrrolo[2,3-c]pyridin-3-yl)pyrimidin-2-yl)amino)phenyl) acrylamide] | 8.42 | 8.61 | – | 8.86 | 7.58 | 271 | 325 | 1.15 | 8.47 | 8.58 | – | – | – | –
8 | Cc1cc(C(=O)Nc2nc3cccc(Cl)c3n2[C@@H]2CCCCN(C(=O)/C=C/CN(C)C)C2)ccn1 [EGF 816] | – | – | – | – | – | – | – | – | 7.17 | 7.11 | 5.54 | 7.60 | 6.56 | 7.36
